Where two headings read alike, the source gives them in different places.
Key:
[1] = molecular target: Rhizobium etli rhizavidin variant monodin (MA), monomeric, A67D/G71K/A82N/G84Q/S101R/A105K + S23H/Q46E/E115W, SEQ ID NO: 3 (Rhizobium etli, UniProt Q8KKW2, A102N/A125K/A87D/E135W/G104Q/G91K/Q66E/S121R/S43H); assay: [^3H]biotin off-rate assay, monodin; type: binding; details: free [^3H]biotin, excess cold biotin, 37° C.
Experimental: [^3H]Biotin Off-Rate Assay
At time-points taken over 5 h at 37° C., 150 μL of aliquots were removed, and added to 600 μL of 0.2 M ZnSO4 (chilled with ice), followed by addition of 600 μL of 0.2 M NaOH. […] Dissociation rates were deduced as discussed above.

biotin-DNA = assay: Gel-based off-rate measurement against biotin-DNA-fluorescein; type: binding; details: 10 h
biotin-GFP = biotin-GFP (Aequorea victoria, UniProt P42212, A206V/E111V/F223Y/F64L/F99S/I128T/I167V/I171V/K158E/K166T/K26E/L221H/M153T/N105K/N149D/N164E/Q80R/S205T/S30R/S65T/T225N/V163A/Y145F/Y39I); details: Biotin-GFP
Experimental: After incubation at the indicated temperature (23° C., 37° C., or 45° C.) for varying time points (between 0 to 10 h), protein-conjugate mixtures were loaded onto a 15% native polyacrylamide gel. […] Data as ln(fraction bound) versus time and fitting the data to a straight line by linear regression.

HeLa cells = assay: Clustering and internalization of biotinylated cell-surface proteins; type: cell-based; details: Cy5-labeled avidin proteins, 37° C.
Experimental: Following biotinylation, the cells were washed twice with cold PBS-CM, treated with 100 mM glycine in PBS-CM for blocking, and washed again twice with cold PBS. […] Unbound avidin proteins were removed, and media was replaced with pre-warmed DMEM (37° C.). Cells were incubated for 5, 10, or 30 m at 37° C. Cells were washed, and fixed with 4% formaldehyde in PBS for confocal imaging (ZEISS, LSM510 META). To visualize endosome or lysozome-specific proteins, cells were fixed, permeabilized, and incubated with a primary antibody: anti-Rab11 (a GTPase of recycling endosome, Abcham) or anti-LAM P1 (Lysosomal-associated membrane protein 1, Abcham). Afterward, cells were incubated with a fluorescent secondary antibody (goat anti-rabbit 555, Abcham), and images were acquired with a confocal microscopy (ZEISS, LSM510 META).

[2] = molecular target: Rhizobium etli rhizavidin variant monodin (MA, MA-His6), monomeric, A67D/G71K/A82N/G84Q/S101R/A105K + S23H/Q46E/E115W, SEQ ID NO: 3 (Rhizobium etli, UniProt Q8KKW2, A102N/A125K/A87D/E135W/G104Q/G91K/Q66E/S121R/S43H); assay: Kd measurement by competition binding for [^3H]biotin against RAWH, monodin
Experimental: (§1) Mixtures were incubated at 37° C. for 20 h to reach equilibration. […] After 1 h incubation at room temperature, the beads were cleared by centrifugation at 13,000 rpm for 1 min. […] Samples were heated to 95° C. for 30 min, and then counted in a liquid scintillation counter. The Kd ratios between competing avidin proteins were calculated with Matlab (Mathworks) using the foregoing formula (Qureshi, M. H. & Wong, S. L. Protein Expr. Purif. 25, 409-415 (2002)).

[3] = molecular target: Rhizobium etli rhizavidin variant RAWH (RAWH-His6), E115W/S23H (Rhizobium etli, UniProt Q8KKW2, E135W/S43H); assay: Kd measurement by competition binding for [^3H]biotin against streptavidin, RAWH
Sequence of Rhizobium etli rhizavidin variant RAWH (RAWH-His6), E115W/S23H (Q8KKW2 entry or part of it S43H/E135W): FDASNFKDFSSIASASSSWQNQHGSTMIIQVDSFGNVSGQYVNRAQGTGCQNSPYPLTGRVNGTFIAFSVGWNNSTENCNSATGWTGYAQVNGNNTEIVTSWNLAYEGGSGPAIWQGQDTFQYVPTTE
Experimental: as §1

Sequence of Rhizobium etli rhizavidin variant monodin (MA), monomeric, A67D/G71K/A82N/G84Q/S101R/A105K + S23H/Q46E/E115W, SEQ ID NO: 3 (Q8KKW2 entry or part of it S43H/Q66E/A87D/G91K/A102N/G104Q/S121R/A125K/E135W): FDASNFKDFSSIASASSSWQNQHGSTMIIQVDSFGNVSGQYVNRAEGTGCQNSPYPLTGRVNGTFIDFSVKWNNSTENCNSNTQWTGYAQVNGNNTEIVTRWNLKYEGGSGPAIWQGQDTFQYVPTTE
Sequence of Rhizobium etli rhizavidin variant monodin (MA, MA-His6), monomeric, A67D/G71K/A82N/G84Q/S101R/A105K + S23H/Q46E/E115W, SEQ ID NO: 3 (Q8KKW2 entry or part of it S43H/Q66E/A87D/G91K/A102N/G104Q/S121R/A125K/E135W): as above

Molecule	percentage of dissociated biotin conjugate after 10 h incubation with excess biotin (biotin-DNA; 23° C.) [% for 10 h*]	percentage of dissociated biotin conjugate after 10 h incubation with excess biotin (biotin-DNA; 37° C.) [% for 10 h*]	percentage of dissociated biotin conjugate after 10 h incubation with excess biotin (biotin-GFP; 23° C.) [% for 10 h*]	percentage of dissociated biotin conjugate after 10 h incubation with excess biotin (biotin-GFP; 37° C.) [% for 10 h*]	further results
O=C(O)CCCC[C@@H]1SC[C@@H]2NC(=O)N[C@@H]21 [[^3H]biotin] [listing 1 of 2 here]					off-rate [1]: 1.2±0.3×10^−5 s^−1
Neutravidin (NA): tetrameric neutravidin (Pierce) [reference compound]	11 ± 4.4	20 ± 0.2	6.8 ± 1.6	16 ± 3.8	percentage of dissociated biotin conjugate after 10 h incubation with excess biotin (biotin-DNA; 37° C., listed as neutravidin): about 20%; percentage of dissociated biotin conjugate after 10 h incubation with excess biotin (biotin-GFP; 45° C.): 32 ± 5.0% for 10 h*
Streptavidin (STA): tetrameric streptavidin, purchased from Abcam [reference compound]	6.8 ± 1.8	17 ± 1	4.7 ± 0.3	22 ± 4.4	incubation time after which avidin protein was internalized (HeLa cells): 10 min; percentage of dissociated biotin conjugate after 10 h incubation with excess biotin (biotin-DNA; 37° C., listed as streptavidin): about 20%; Dissociation rate (biotin-GFP; 45° C., excess biotin): 1.9 ± 0.2 × 10^−5 s^−1
O=C(O)CCCC[C@@H]1SC[C@@H]2NC(=O)N[C@@H]21 [biotin]					Kd [2]: 0.031 ± 0.01 nM
O=C(O)CCCC[C@@H]1SC[C@@H]2NC(=O)N[C@@H]21 [[^3H]biotin] [listing 2 of 2 here]					Kd [3]: 0.0069 nM

Reference: patent US10017546B2 (KOREA ADVANCED INSTITUTE OF SCIENCE AND TECHNOLOGY, priority 2015, dated 2018)
